{
  "source": "paper PMC5156807",
  "about": "“Stabilized Polymer Micelles for the Development of IT-147, an Epothilone D Drug-Loaded Formulation” (Journal of Drug Delivery, 2016)",
  "key": {"[1]": {"details": "intraperitoneal bolus, mouse tumor models; cited from earlier work"}, "[2]": {"experiment": "Stability of drug substance in pilot formulations (mass spectrometry)", "format": "physicochemical", "text": "Epothilones B and D were selected for encapsulation using triblock copolymers. […] This was not completely surprising as stability of epothilone B both in vitro and in vivo has been addressed in the literature. Epothilone D, the alkene derivative of epothilone B (also known as desoxy-epothilone B), was selected as the preferred drug substance for encapsulation due to increased stability in aqueous environments and pH fluctuations. A small library of triblock copolymers was used to conduct pilot formulations of epothilone D drug-loaded micelles, with the ultimate goal to select IT-147, the lead for development of an epothilone D encapsulated polymer micelle formulation. Five of the polymers chosen for the library contained stabilizing blocks comprised of hydroxamic acid functionalized poly(glutamic acid), and five of the polymers contained poly(cysteine) amino acid moieties as stabilizing blocks (Figure 2, Table 1). All polymers contained a 12 kDa PEG and a mixture of hydrophobic amino acids with D and L isomers in the core block. Pilot formulations were characterized by determining formulation efficiency, epothilone D drug loading (% w/w), average particle diameter, and retention of epothilone D following dialysis above and below the critical micelle concentration (Table 1)."}, "[3]": {"experiment": "Dialysis stability / pH-dependent release assay", "format": "physicochemical", "details": "20 mg/mL, 3500 MWC, 10 mM phosphate buffer, 6 hours, room temperature; epothilone D retained", "procedure": "Retention of the epothilone drug substance within the micelle formulation and the release profile of the drug substance over time, concentration, and pH were investigated using dialysis. Formulations were reconstituted at concentrations of 20 mg/mL and 0.2 mg/mL and placed in dialysis tubing with 3500 MWC pore size, which allows for retention of the micelles within the bag and release of the free drug from the bag into the reservoir. A volume of 3 mL of reconstituted formulation was placed into dialysis bags and then placed in a 300 mL reservoir containing 10 mM phosphate buffer and stirred for 6 hours at room temperature. HPLC assay for epothilone concentration of the formulation inside the bag was done before and after dialysis to determine the percentage of epothilone retained inside the dialysis bag over 6 hours. pH-dependent release was performed using 10 mM phosphate buffer at pH 3, 4, 5, 6, 7, 7.4, and 8 in the reservoirs during dialysis."}, "[4]": {"experiment": "Pilot toxicokinetic dose range-finding study in cannulated rat model", "format": "in vivo, Sprague-Dawley rats", "details": "for Dose limiting Toxicities / average weight loss: rat, 20 mg/kg; for Dose limiting Toxicities: w.l. = weight loss; for average weight loss: four days", "procedure": "The lead hydroxamic acid and cysteine containing formulations were compared to free epothilone D using a cannulated rat model by administering a 10 mg/kg dose by fast bolus to the jugular vein catheter. Female, Sprague-Dawley rats surgically modified with jugular vein catheters exteriorized posteriorly were purchased from Harlan Labs. Catheters were flushed and maintained with heparinized saline to ensure patency over the study period. The catheter port was used for both test article administration and blood collection. IT-147 pharmacokinetics at 20, 30, and 40 mg/kg were compared to epothilone D free drug at 20 mg/kg in the cannulated rat model. IT-147 was reconstituted in saline, while epothilone D free drug was reconstituted in cremaphor : ethanol : saline at 1 : 1 : 4 ratio. All in vivo studies were conducted under Institutional Guidelines. The Institutional Animal Care and Use Committee (IACUC), at the University of South Florida (USF), approved all rat in vivo study protocols. Animals were maintained and evaluated under pathogen-free conditions in accordance with USF College of Medicine IACUC standards of care. Approximately 300 μL of blood was collected into K2EDTA tubes containing PMSF (final concentration 2.5 mM) at time points of 1, 5, 15, and 60 minutes after test article administration. Samples were centrifuged at 2000 RPM for 5 minutes to isolate plasma. Plasma was aliquoted into microcentrifuge tubes and frozen at −20°C until processed for HPLC/UV analysis. The following bioanalytical method is a modification of the procedure originally developed by Yuan et al.. Bioanalytical sample preparation was performed by liquid : liquid extraction. 50 μL of plasma sample was added to 600 μL of n-butyl chloride and vortexed for 10 minutes. Samples were centrifuged at 10,000 RPM for 10 minutes and the organic supernatant was aliquoted into microcentrifuge tubes. The n-butyl chloride supernatant was evaporated to dryness using a turbovap with nitrogen flow at room temperature, and 75 μL of a 40% acetonitrile in water solution was added to each tube. Samples were then vortexed for 5 minutes, aliquoted into HPLC vials, and processed using HPLC methodology as described in Section 2.3. Blank rat plasma containing PMSF was used to spike in epothilone D for standard curve preparation and processed as described for the plasma samples to determine concentration of epothilone D isolated from the samples collected from the cannulated rats. Noncompartmental analysis of the pharmacokinetic data was done using Phoenix WinNonlin version 6.3.\nA pilot dose range-finding toxicokinetic study in a cannulated rat model was performed to support future full scale toxicokinetic studies of IT-147. Doses of IT-147 at 20, 30 and 40 mg/kg were compared to epothilone D free drug at 20 mg/kg (Table 3, Figure 7) followed by monitoring of animal weight change, gross signs of clinical toxicity, and limited plasma sampling for pharmacokinetic analysis (Table 4). IT-147 was reconstituted in saline while epothilone D free drug was administered in a cremaphor : ethanol : saline mixture. Test articles were given by fast bolus to the rat jugular vein, and blood was collected at time points of 1 minute, 5 minutes, 15 minutes, 1 hour, 2 hours, 4 hours, and 6 hours. […] Samples collected after the 1-hour time point were below the limit of quantitation for analysis. […] It was concluded that 20 mg/kg epothilone D free drug was above the maximum tolerated dose for these animals. […] Animals were monitored for one week following test article administration. […] Animals were monitored for four days after test article administration and were euthanized on the fourth day due to welfare concerns. […] It was concluded that 40 mg/kg epothilone D from IT-147 was above the maximum tolerated dose for these animals."}, "[5]": {"experiment": "Plasma pharmacokinetic screening of pilot formulations in cannulated rat model", "format": "in vivo, Sprague-Dawley rats", "details": "rat plasma epothilone D, 10 mg/kg fast bolus jugular vein catheter", "procedure": "The lead hydroxamic acid and cysteine containing formulations were compared to free epothilone D using a cannulated rat model by administering a 10 mg/kg dose by fast bolus to the jugular vein catheter. Female, Sprague-Dawley rats surgically modified with jugular vein catheters exteriorized posteriorly were purchased from Harlan Labs. Catheters were flushed and maintained with heparinized saline to ensure patency over the study period. The catheter port was used for both test article administration and blood collection. IT-147 pharmacokinetics at 20, 30, and 40 mg/kg were compared to epothilone D free drug at 20 mg/kg in the cannulated rat model. IT-147 was reconstituted in saline, while epothilone D free drug was reconstituted in cremaphor : ethanol : saline at 1 : 1 : 4 ratio. All in vivo studies were conducted under Institutional Guidelines. The Institutional Animal Care and Use Committee (IACUC), at the University of South Florida (USF), approved all rat in vivo study protocols. Animals were maintained and evaluated under pathogen-free conditions in accordance with USF College of Medicine IACUC standards of care. Approximately 300 μL of blood was collected into K2EDTA tubes containing PMSF (final concentration 2.5 mM) at time points of 1, 5, 15, and 60 minutes after test article administration. Samples were centrifuged at 2000 RPM for 5 minutes to isolate plasma. Plasma was aliquoted into microcentrifuge tubes and frozen at −20°C until processed for HPLC/UV analysis. […]\nStability of polymer micelles to dilution is one of the most important physiochemical characteristics for a formulation to be successful in vivo. […] The top two candidates from the pilot epothilone D formulations were evaluated, along with epothilone D free drug, using a cannulated rat model for pharmacokinetics. Selection of the lead epothilone D formulation, termed IT-147, was determined from the exposure of epothilone D to the plasma compartment by calculating the area under the concentration versus time curve (AUC) and maximum concentration (C max). […]"}, "[6]": {"details": "female, Sprague-Dawley, iv, rat plasma, 20 mg/kg epothilone D equivalent, fast bolus jugular vein"}},
  "note": "Like-named read-outs stand apart in the source and are kept apart here.",
  "data": [
    {"molecule": "C/C(=C\\c1csc(C)n1)[C@@H]1C[C@@H]2O[C@]2(C)CCC[C@H](C)[C@H](O)[C@@H](C)C(=O)C(C)(C)[C@@H](O)CC(=O)O1", "note": "[epothilone B]", "values": [
      {"measurement": "LD50", "setting": "[1]", "value": 0.6, "unit": "mg/kg"},
      {"measurement": "maximum tolerated dose", "setting": "[1]", "value": 0.3, "unit": "mg/kg"},
      {"measurement": "stability of the drug substance (epoxide ring) under formulation conditions", "setting": "[2]", "value": "unstable to all experimental formulation conditions"}
    ]},
    {"molecule": "C/C1=C/C[C@@H](/C(C)=C/c2csc(C)n2)OC(=O)C[C@H](O)C(C)(C)C(=O)[C@H](C)[C@@H](O)[C@@H](C)CCC1", "note": "[epothilone D]", "values": [
      {"measurement": "maximum tolerated dose", "setting": "[1]", "value": 25, "unit": "mg/kg"},
      {"measurement": "Dialysis > CMC (% remaining)", "setting": "[3]", "value": 15, "unit": "%"},
      {"measurement": "maximum tolerated dose", "setting": "[4]; cannulated rat, single fast bolus, epothilone D equivalent, listed as epothilone D free drug", "value": "< 20", "unit": "mg/kg"},
      {"measurement": "Cmax", "setting": "[4]; [6]", "value": 32200, "unit": "ng/mL"},
      {"measurement": "clearance", "setting": "[4]; [6]", "value": 40.2, "unit": "mL/min/kg"},
      {"measurement": "half-life", "setting": "[4]; female, Sprague-Dawley, iv, terminal, rat plasma, 20 mg/kg epothilone D equivalent, fast bolus jugular vein", "value": 18, "unit": "min"},
      {"measurement": "AUC(0–6 h)", "setting": "[4]; rat plasma, 20 mg/kg epothilone D equivalent, fast bolus jugular vein", "value": 8.3, "unit": "h∗µg/mL"},
      {"measurement": "Dose limiting Toxicities", "setting": "[4]; 20 mg/kg epothilone D equivalent, listed as Epo D", "value": ">10% w.l. lethargy impaired gait orbital-bleeding"},
      {"measurement": "Dose limiting Toxicities", "setting": "[4]; 20 mg/kg epothilone D equivalent, listed as Epothilone D free drug", "value": "lethargy, impaired gait, orbital bleeding, porphyrin accumulation around the face, and disheveled fur"},
      {"measurement": "Dose limiting Toxicities", "setting": "[4]; 20 mg/kg epothilone D equivalent, listed as epothilone D free drug", "value": "lethargy, gait impairment, and retro-orbital bleeding"},
      {"measurement": "average weight loss", "setting": "[4]; listed as Epothilone D free drug", "value": 12, "unit": "%"},
      {"measurement": "average weight loss", "setting": "[4]; listed as epothilone D free drug", "value": "greater than 10%"},
      {"measurement": "concentration at 60 min", "setting": "[5]; female, Sprague-Dawley, intravenous, 60 minutes, read-out: Clast", "value": "1600 ± 800", "unit": "ng/mL"},
      {"measurement": "Cmax", "setting": "[5]; female, Sprague-Dawley, intravenous, at 1 minute", "value": "19700 ± 4100", "unit": "ng/mL"},
      {"measurement": "AUC(0-1 h)", "setting": "[5]", "value": 5.2, "unit": "h∗µg/mL"}
    ]}
  ]
}
